≈ marks a conversion by molar mass, not a printed value.
Assays:
Format in all cases: cell-based
Staph. aureus V41 = experiment: Agar dilution MIC; details: Staphylococcus aureus, strain V41
Staph. aureus X400 = experiment: Agar dilution MIC; details: Staphylococcus aureus
Staph. aureus S13E = experiment: microbe, parasite or virus in culture; details: Staphylococcus aureus
Staph. epi EPI1 = experiment: Agar dilution MIC; details: strain EPI1
Strep. D 9960 = experiment: Agar dilution MIC
Klebsiella X68 = experiment: Agar dilution MIC
Pseudomonas X239 = experiment: Agar dilution MIC; details: strain X239
Description: (§1) The antibacterial activity of several representative compounds of the invention has been evaluated in standard in vitro agar dilution assays. The following Table presents typical minimum inhibitory concentrations (MIC's) in μg/ml for exemplary compounds when evaluated against typical Gram+and Gram-microorganism.
(§2) Agar Dilution MIC (μg/ml)

Pseudomonas X528 = experiment: Agar dilution MIC; details: strain X528
Description: as §1, §2

## CO/N=C(\C(=O)N[C@@H]1C(=O)N2C(C(=O)[O-])=C(C[n+]3cccc4nc(N)sc43)CS[C@H]12)c1csc(N)n1 [Example 15, syn-7-[2-(2-aminothiazol-4-yl)-2-methoxyiminoacetamido]-3-(2-aminothiazolo[5,4-b]pyridinium-4-ylmethyl)-3-cephem-4-carboxylate]
Staph. aureus V41
  MIC: 2 µg/mL (≈ 3.66 µM)
Staph. aureus X400
  MIC: 32 µg/mL (≈ 58.5 µM)
Staph. aureus S13E
  MIC: 4 µg/mL (≈ 7.32 µM)
Staph. epi EPI1
  MIC: 2 µg/mL (≈ 3.66 µM)
Strep. D 9960
  MIC: 8 µg/mL (≈ 14.6 µM)
Klebsiella X68
  MIC: 4 µg/mL (≈ 7.32 µM)
Pseudomonas X239
  MIC: 2 µg/mL (≈ 3.66 µM)
Pseudomonas X528
  MIC: 1 µg/mL (≈ 1.83 µM)

From patent US4748172A, “3-bicyclicpyridinium-methyl cephalosporins” (Eli Lilly and Company, priority 1987, dated 1988)
